# Data taken from patent US4859671A, “2-substituted 1,2-benzisothiazol-3(2H)-one 1,1-dioxide useful as an anxiolytic agent” (American Home Products Corporation, priority 1988, dated 1989).
# Key:
# 5-HT1A receptor = target: T1, 5-HT1A receptor (Rattus norvegicus, UniProt P19327); conditions: for inhibition at 1 µM: pH 7.7, read-out: % Inhibition at 1 μM, 5-HT1A Receptor Binding
# T1 sequence (P19327 1-422): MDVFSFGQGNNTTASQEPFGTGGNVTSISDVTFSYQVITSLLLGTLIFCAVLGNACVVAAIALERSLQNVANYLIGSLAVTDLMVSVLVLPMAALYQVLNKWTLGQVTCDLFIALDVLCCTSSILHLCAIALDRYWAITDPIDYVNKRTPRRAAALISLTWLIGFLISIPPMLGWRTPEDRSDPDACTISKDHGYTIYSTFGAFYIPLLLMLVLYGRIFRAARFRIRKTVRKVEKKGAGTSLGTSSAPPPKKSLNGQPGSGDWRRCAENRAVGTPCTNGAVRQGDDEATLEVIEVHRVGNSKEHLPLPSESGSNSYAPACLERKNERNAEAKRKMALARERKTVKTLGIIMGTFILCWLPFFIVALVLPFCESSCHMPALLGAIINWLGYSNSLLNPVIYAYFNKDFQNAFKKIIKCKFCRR
# Protocol: The assay is carried out as follows:
# Hippocampal tissue from male Sprague Dawley rats is dissected and homogenized on ice in 40 volumes of buffer A (50 mM Tris-HCl, pH=7.7) using a Polytron homogenizer at setting 5 for 3×15-second bursts. The homogenate is then centrifuged at 20,000 rpm (RC5-B; 50,000 g), and the supernatant is discarded. The pellet is resuspended in 40 volumes of the same buffer and incubated at 37° C. for 10 minutes to aid in the removal of endogenous serotonin. The homogenate is then centrifuged (as above) and the supernatant discarded. The pellet is then resuspended in 100 volumes of buffer B (50 mM Tris HCl, pH=7.7 containing 0.1% ascorbate, 10 μM pargyline and 4 mM CaCl2) and sonicated. An aliquot is taken for protein determination by the Lowry method and the remainder stored frozen at -70° C. until used.
# At the end of the incubation, 3 mL of cold buffer A are added to each tube, and the contents rapidly filtered through Whatman GF/B glass-fiber filters. The filters are then rapidly washed 2 times with 3 mL of the same buffer, placed in scintillation vials, and shaken for 15 minutes with 10 mL of Hydrofluor (National Diagnostics) scintillation cocktail. The vials are then counted in a Packard 460CD scintillation counter.
# Specific binding is defined as total binding less binding in the presence of excess unlabeled serotonin (1 μM). Binding in the presence of various concentrations of test drug is expressed as a percent of specific binding when no drug is present. […] Ki (inhibition constant) for the test drug is then calculated by the formula: [formula]
# anxiety = conditions: cited from earlier work; for efficacy in the treatment of anxiety neuroses (in words): clinical, compared with diazepam
# 5-HT1A receptors = conditions: compared with buspirone; cited from earlier work
Structure (SMILES),inhibition at 1 µM (5-HT1A receptor) [%],anxiolytic activity in clinical trials (in words) (anxiety),efficacy in the treatment of anxiety neuroses (in words) (anxiety),further results
O=C1CC2(CCCC2)CC(=O)N1CCCCN1CCN(c2ncccn2)CC1 [Buspirone],94,,,
"O=C1c2ccccc2S(=O)(=O)N1CCCCN1CCN(c2nccc3ccncc23)CC1 [Example 1, 2-[4-[4-(2,7-Naphthyridin-1-yl)-1-piperazinyl]butyl]-1,2-benzoisothiazol-3(2H)-one 1,1-Dioxide]",100,,,affinity for the 5-HT1A receptor site (in words) (5-HT1A receptor; conclusion from Table 1): high affinity
"CC1(C)CC(=O)N(CCCCN2CCN(c3ncccn3)CC2)C(=O)C1 [Gepirone, 4,4-dimethyl-1-[4-[4-(2-pyrimidinyl)-1-piperazinyl]butyl]-2,6-piperidinedione]",,potent anxiolytic drugs,comparable to the benzodiazepine diazepam,
O=C1c2ccccc2S(=O)(=O)N1CCCCN1CCN(c2ncccn2)CC1 [ipsapirone],,potent anxiolytic drugs,,selectivity for 5-HT1A receptors relative to buspirone (in words) (5-HT1A receptors): higher degree of selectivity for 5-HT1A receptors than buspirone
Cc1nc2sccn2c(=O)c1CCN1CCC(=C(c2ccc(F)cc2)c2ccc(F)cc2)CC1 [ritanserin],,,comparable to the benzodiazepine diazepam,
